Experiment [1] has as its system TF1 cells maintained with IL-6. The experiment can be described thus: Bioassay using TF1 cells maintained with IL-6. The format is cell-based, human. Details: TF1: unit not given here. To be noted: for TF1: MPS crude peptides, Table 6. An excerpt: TF1 cells (human erythroleukemia) cells require IL-6 for growth and thus inhibition of IL-6 bioactivity results in cell death, similar to T1165 cells. The origin of all relevant molecules is human.
The problem associated with toxicity (false positive results), could be overcome in the TF1 based assay since these cells can be induced by additional cytokines which are unrelated to IL-6 (not using the gp130 signal transducer). It, is possible to induce the cells to grow with IL-6 and with additional cytokine e.g. GM-CSF. Specific inhibition of IL-6 bioactivity is therefore expected to register only in cells induced by IL-6 and not with GM-CSF. […] Assay procedure is based on the procedure described in Fourcin et al. (ibid). The amount of viable cells at the end of the assay is determined by staining the cells with WST reagent as well as by measuring thymidine corporation (^3H-T).
The libraries were screened for binding of soluble IL-6. The information obtained was used for synthesis of backbone cyclic peptides in MPS format. Analyses for biological activity were performed on the TF1 human cell line.
Since the endpoint of the bioassay used is cell death, there is a need to check the specificity of the killing action, and to examine whether the cell death is due to inhibition of the IL-6 signaling pathway. The peptide analogs were therefore analyzed for their ability to induce non-specific cell death when the same cells were maintained with GM-CSF (instead of IL-6) as growth factor.

In experiment [2] the test system is B16.F10.9 melanoma cells. The following applies: for B16F10.9 active at: theoretical crude concentration, MPS peptides; for concentration that fully blocks IL-6 activity: 200 ng/ml IL-6 and 125 ng/ml sIL-6R, three days, FIG. 2.
Excerpt: The F10.9 sub-line of B16 (murine melanoma) expresses gp130 but not IL-6R. Addition of human IL-6 and human IL-6R, or a chimera of IL-6/IL-6R results in differentiation which is associated with growth arrest of the cells. Inhibition of IL-6 results in continued growth. Since the end point of this assay is cell growth rather than cell death, this assay system was used primarily in order to differentiate between suspected toxic effects observed on B9 or T1165 cells, and true inhibition of IL-6 activity.
Evaluation of the results in this assay is possible using two methods. One method uses vital dyes for monitoring cell growth. The second method comprises visual observation of the cell morphology and establishing a cut off point based on the following observations:
Cells which are not treated with IL-6 create a monolayer that covers almost all the surface area. Treatment with IL-6 causes growth arrest and a morphological change: the cells become very narrow and elongated as compared to the more spread out shape of the non-treated cells.
Peptides were added to B16.F10.9 melanoma cells in the presence of 200 ng/ml IL-6 and 125 ng/ml sIL-6R. Incubation for three days.
Experiment [3] deals with IL-6 mediated acute-phase response. The experiment can be described thus: IL-6 mediated acute-phase response (turpentine model). The format is in vivo, mice. To be noted: mice, turpentine, 1 or 10 mg/kg of peptide. The text has this: The objective was to establish a simple first-line in-vivo model, for testing the activity of IL-6 inhibitors. The turpentine model was chosen based on the principal role that IL-6 plays in this inflammatory response.
Systemic and localized inflammation elicit a general reaction in the organism, known as the acute phase response, which includes fever, loss of body weight, hypoglycemia, and changes in the serum levels of several plasma proteins produced by the liver. IL-6 is an important mediator of the acute-phase reaction (see Heinrich et.al., Biochemistry J. 1 265:621, 1990 for a comprehensive review), together with IL-1 and TNF-α. It has been shown previously that sterile tissue damage caused by injection of turpentine induces an acute-phase reaction, and that IL-6 is an essential mediator of this response (Rokita et.al., Cytokine 5:454, 1993).
IL-6 knock-out (-/-) and matched wild-type (C57/Black; CB) mice were used. Sterile tissue damage was induced by subcutaneous injection of turpentine, 0.1 ml, into both hind limbs. IL-6 was determined in the serum by ELISA (QuantikineM, R&D). For liver acute-phase proteins, Fibrinogen was determined in citrated plasma, by the calcium method.
PTR 5045 (SEQ ID NO:75) was tested in this model in compare to the non-relevant control peptide PTR 4041 (SEQ ID NO:33) (Lys-GlyC2-Leu-Ile-Gln-Leu-Phe-GlyN3-Lys-Lys-NH2).

Numbered stars: 1 amine (or outer) side, 2 acyl side, 3 side chain; on linkers, the order of the positions; unused ones are H or OH. Bridge positions count the residues as written; N and C are the ends. Square brackets hold non-standard residues; d marks the D form. Peptide text beside a SMILES is read from it. ξ: configuration not given here. Ala(Nα-(CH2)3CO) = C[C@@H](C(=O)[*:2])N(CCCC(=O)[*:3])[*:1]; Ala(Nα-(CH2)3NH) = C[C@@H](C(=O)[*:2])N(CCCN[*:3])[*:1]; Gly(Nα-(CH2)3CO) = O=C(CN(CCCC(=O)[*:3])[*:1])[*:2]; N(2-Aminoethyl)Gly = O=C(CN(CCN[*:3])[*:1])[*:2]; ξY = NC(Cc1ccc(O)cc1)C(=O)O

Turning to `CC(C)C[C@@H]1NC(=O)[C@H](C)N(C(=O)[C@@H](Cc2ccccc2)NC(=O)[C@H](CCCNC(=N)N)NC(=O)[C@H](CCCCN)NC(=O)[C@H](CCCNC(=N)N)NC(=O)[C@H](N)CCCCN)CCCC(=O)NCCCN([C@@H](C)C(N)=O)C(=O)[C@@H](Cc2ccc(O)cc2)NC(=O)[C@H](CCCNC(=N)N)NC1=O` [(D)Lys-Arg-Lys-Arg-(D)Phe-AlaC3-Leu-Arg-(D)Tyr-AlaN3] (H-[dK]RKR[dF][Ala(Nα-(CH2)3CO)]LR[dY][Ala(Nα-(CH2)3NH)]-NH2; lactam 6-10), the TF1 in experiment [1] was determined as 23. For the same compound, in experiment [2], the B16F10.9 active at amounted to 62 µM.
Take `C[C@@H](C(N)=O)N1CCCNC(=O)CCCN(C(=O)[C@@H](Cc2ccccc2)NC(=O)[C@H](CCCNC(=N)N)NC(=O)[C@H](CCCCN)NC(=O)[C@H](CCCNC(=N)N)NC(=O)[C@H](N)CCCCN)[C@@H](C)C(=O)N[C@@H](CCCCN)C(=O)N[C@H](CCCNC(=N)N)C(=O)N[C@H](Cc2ccc(O)cc2)C1=O` [(D)Lys-Arg-Lys-Arg-(D)Phe-AlaC3-Lys-(D)Arg-(D)Tyr-AlaN3] (H-[dK]RKR[dF][Ala(Nα-(CH2)3CO)]K[dR][dY][Ala(Nα-(CH2)3NH)]-NH2; lactam 6-10): the TF1 in experiment [1] amounted to 17. The compound further gave a B16F10.9 active at in experiment [2] of 62 µM.
For `C[C@@H](C(N)=O)N1CCCNC(=O)CCCN(C(=O)[C@@H](Cc2ccccc2)NC(=O)[C@H](CCCNC(=N)N)NC(=O)[C@H](CCCCN)NC(=O)[C@H](CCCNC(=N)N)NC(=O)[C@H](N)CCCCN)[C@@H](C)C(=O)N[C@@H](CCCCN)C(=O)N[C@@H](CCCNC(=N)N)C(=O)N[C@@H](Cc2ccc(O)cc2)C1=O` [(D)Lys-Arg-Lys-Arg-(D)Phe-AlaC3-Lys-Arg-Tyr-AlaN3] (H-[dK]RKR[dF][Ala(Nα-(CH2)3CO)]KRY[Ala(Nα-(CH2)3NH)]-NH2; lactam 6-10), in that order: 55 and 62 µM.
Regarding `CC(C)C[C@@H]1NC(=O)[C@H](C)N(C(=O)[C@H](Cc2ccccc2)NC(=O)[C@@H](CCCNC(=N)N)NC(=O)[C@H](CCCCN)NC(=O)[C@H](CCCNC(=N)N)NC(=O)[C@@H](N)CCCCN)CCCC(=O)NCCCN([C@@H](C)C(N)=O)C(=O)C(Cc2ccc(O)cc2)NC(=O)[C@H](CCCNC(=N)N)NC1=O` (stereo partly drawn) [Lys-Arg-Lys-(D)Arg-Phe-AlaC3-Leu-Arg-BTyr-AlaN3] (H-KRK[dR]F[Ala(Nα-(CH2)3CO)]LR[ξY][Ala(Nα-(CH2)3NH)]-NH2; lactam 6-10), in experiment [1], the TF1 was determined as 85. In addition, the B16F10.9 active at in experiment [2] was less than 12 µM.
For `C[C@@H](C(N)=O)N1CCCNC(=O)CCCN(C(=O)[C@H](Cc2ccccc2)NC(=O)[C@H](CCCNC(=N)N)NC(=O)[C@H](CCCCN)NC(=O)[C@H](CCCNC(=N)N)NC(=O)[C@@H](N)CCCCN)[C@@H](C)C(=O)N[C@@H](CCCCN)C(=O)N[C@H](CCCNC(=N)N)C(=O)NC(Cc2ccc(O)cc2)C1=O` (stereo partly drawn) [Lys-Arg-Lys-Arg-Phe-AlaC3-Lys-(D)Arg-BTyr-AlaN3] (H-KRKRF[Ala(Nα-(CH2)3CO)]K[dR][ξY][Ala(Nα-(CH2)3NH)]-NH2; lactam 6-10), in that order: 21 and 62 µM.
With `CC(C)C[C@@H]1NC(=O)CN(C(=O)[C@H](Cc2ccccc2)NC(=O)[C@H](CCCNC(=N)N)NC(=O)[C@H](CC(C)C)NC(=O)[C@H](CCCNC(=N)N)NC(=O)[C@@H](N)Cc2ccc(O)cc2)CCCC(=O)NCCN(CC(N)=O)C(=O)[C@H](Cc2ccc(O)cc2)NC(=O)[C@H](CCCNC(=N)N)NC1=O` [PTR 5005, Tyr-Arg-Leu-Arg-Phe-GlyC3-Leu-Arg-Tyr-GlyN2] (H-YRLRF[Gly(Nα-(CH2)3CO)]LRY[N(2-Aminoethyl)Gly]-NH2; lactam 6-10), the “activity on TF1 cells” value in experiment [1] (in words) is on record as “appears to be active”. For the same compound, the “IC50 in the B16F10.9 cell assay” value in experiment [2] is “around 10 μ/ml”.
As for `CC(C)C[C@@H](NC(=O)[C@H](CCCNC(=N)N)NC(=O)[C@H](N)CCCCN)C(=O)N[C@H](CCCNC(=N)N)C(=O)N[C@H](Cc1ccccc1)C(=O)N1CCCC(=O)NCCCN([C@@H](C)C(N)=O)C(=O)[C@@H](Cc2ccc(O)cc2)NC(=O)[C@H](CCCNC(=N)N)NC(=O)[C@@H](CC(C)C)NC(=O)[C@@H]1C` [PTR 5041, (D)Lys-Arg-(D) Leu-(D) Arg-(D)Phe-AlaC3-(D)Leu-Arg-(D)Tyr-AlaN3-NH2] (H-[dK]R[dL][dR][dF][Ala(Nα-(CH2)3CO)][dL]R[dY][Ala(Nα-(CH2)3NH)]-NH2; lactam 6-10), the TF1 in experiment [1] came to 92. Moreover, in experiment [2], the “concentration that fully blocks IL-6 activity” value is listed as “about 250 nM” and the B16F10.9 active at turned out to be 47 µM.
In experiment [1], `CC(C)C[C@@H]1NC(=O)[C@H](C)N(C(=O)[C@@H](Cc2ccccc2)NC(=O)[C@@H](CCCNC(=N)N)NC(=O)[C@H](CCCCN)NC(=O)[C@H](CCCNC(=N)N)NC(=O)[C@@H](N)Cc2c[nH]c3ccccc23)CCCC(=O)NCCCN([C@@H](C)C(N)=O)C(=O)C(Cc2ccc(O)cc2)NC(=O)[C@H](CCCNC(=N)N)NC1=O` (stereo partly drawn) [Trp-Arg-Lys-(D)Arg-(D)Phe-AlaC3-Leu-Arg-BTyr-AlaN3] (H-WRK[dR][dF][Ala(Nα-(CH2)3CO)]LR[ξY][Ala(Nα-(CH2)3NH)]-NH2; lactam 6-10) showed a TF1 of 41. The same compound gave a B16F10.9 active at in experiment [2] of less than 12 µM.
With `CC(C)C[C@@H]1NC(=O)[C@H](C)N(C(=O)[C@H](Cc2ccccc2)NC(=O)[C@@H](CCCNC(=N)N)NC(=O)[C@H](CCCCN)NC(=O)[C@H](CCCNC(=N)N)NC(=O)[C@@H](N)Cc2c[nH]c3ccccc23)CCCC(=O)NCCCN([C@@H](C)C(N)=O)C(=O)C(Cc2ccc(O)cc2)NC(=O)[C@H](CCCNC(=N)N)NC1=O` (stereo partly drawn) [Trp-Arg-Lys-(D)Arg-Phe-AlaC3-Leu-Arg-BTyr-AlaN3] (H-WRK[dR]F[Ala(Nα-(CH2)3CO)]LR[ξY][Ala(Nα-(CH2)3NH)]-NH2; lactam 6-10; C-terminus assumed), in experiment [1], the TF1 worked out at 32. The B16F10.9 active at in experiment [2] was less than 12 µM.
For `CC(C)C[C@@H]1NC(=O)[C@H](C)N(C(=O)[C@@H](Cc2ccccc2)NC(=O)[C@@H](CCCNC(=N)N)NC(=O)[C@H](CCCCN)NC(=O)[C@H](CCCNC(=N)N)NC(=O)[C@@H](N)Cc2ccc(O)cc2)CCCC(=O)NCCCN([C@@H](C)C(N)=O)C(=O)C(Cc2ccc(O)cc2)NC(=O)[C@@H](CCCNC(=N)N)NC1=O` (stereo partly drawn) [Tyr-Arg-Lys-(D)Arg-(D)Phe-AlaC3-Leu-(D)Arg-BTyr-AlaN3] (H-YRK[dR][dF][Ala(Nα-(CH2)3CO)]L[dR][ξY][Ala(Nα-(CH2)3NH)]-NH2; lactam 6-10) the same measures were 19 and 47 µM.
For “(D)Lys-Arg-Lys-Arg-Phe-AlaC3-(D)Leu-(D)Arg-Tyr-AlaN3”, in that order: 27 and “not active”.
For “(D)Lys-Arg-Lys-Arg-Phe-AlaC3-Leu-(D)Arg-(D)Tyr-AlaN3”, in that order: 19 and “not active”.
As for “(D)Lys-Arg-Lys-Arg-Phe-AlaC3-Leu-Arg-(D)Tyr-AlaN3”, the TF1 in experiment [1] worked out at 25. Also, the B16F10.9 active at entry in experiment [2] is on record as “not active”.
For “(D)Lys-Arg-Lys-Arg-Phe-AlaC3-Lys-Arg-(D)Tyr-AlaN3” the same measures were 21 and “not active”.
For “(D)Tyr-Arg-Lys-Arg-Phe-AlaC3-Lys-(D)Arg-(D)Tyr-AlaN3” the same measures were 22 and “not active”.
For “Lys-Arg-Leu-(D)Arg-(D)Phe-AlaC3-Lys-Arg-BTyr-AlaN3” the same measures were 22 and “not active”.
With “Lys-GlyC2-Leu-Ile-Gln-Leu-Phe-GlyN3-Lys-Lys-NH2 (KGLIQLFGKK; not fully specified; backbone cyclization, C-amide; listed as Homo sapiens) [PTR 4041, reference compound]”, in experiment [3], the “Mean weight loss %” value was −7.3% and the “Mean weight loss grams” value is −2.51 grams. In addition, the “concentration that fully blocks IL-6 activity” value in experiment [2] is given as “not active”.

Source of the values: patent US6841533B1, “Conformationally constrained backbone cyclized interleukin-6 antagonists” (Peptor Limited, priority 1995, dated 2005).
